Here are results for two compounds from patent US8530619B2, “Identification of the hepcidin binding site on ferroportin” (University of Utah Research Foundation, priority 2007, dated 2013).

No end group written: not given here.

Data set [1] in a line: Solubility of the peptide. In kind it is physicochemical. The conditions noted are these: two arginines added at amino and carboxyl terminals. As to the method:
Peptides were synthesized at the DNA/Peptide Core Facility, University of Utah, Salt Lake City, Utah. The peptides were synthesized with two arginines added at the amino and carboxyl terminals. […] Microscope analysis was carried out using an Olympus BX51 microscope (Olympus, Tokyo, Japan). Images were acquired using Picture Frame 2.5 software (Olympus America, East Muskogee, Okla.). All experiments were repeated a minimum of 5 times.

Data set [2] has as its target T1, I-HBD (hepcidin binding domain of ferroportin) (Homo sapiens, UniProt Q9NP59).
T1 construct: made in house; host or cells: chemical synthesis
As to the kind of experiment: Competition with 125I-hepcidin for binding to I-HBD beads. Here is the method: FIGS. 2A-C illustrates that the binding of ^125I-hepcidin to HBD is specific and temperature dependent. In FIG. 2A peptides (HBD, scrambled-HBD or mutant (C326Y HBD) were conjugated to beads and ^125I-hepcidin was added to the bead-immobilized peptides (I-HBD) for 18 hours at 37° C. (black bars) or 4° C. (grey bars). The beads were washed and the amount of ^125I-hepcidin bound to the I-HBD was determined. In FIG. 2B a sub saturating concentration of ^125I-hepcidin (0.6 μg/ml) was incubated with I-HBD for 18 hours at 37° C. in the presence or absence of known concentrations of either hepcidin 25 (Hep 25-open circles) or hepcidin 25 synthesized with a tyrosine substitution at position M21 (Y-Hep 25) and the amount of radioactivity bound to the I-HBD determined. In FIG. 2C sub saturating levels of ^125I-hepcidin were incubated with I-HBD at different temperatures.
The binding of ^125I-hepcidin could be reduced by addition of native non-radioactive hepcidin with an apparent K of approximately 200 nM (FIG. 2B). There was no binding of ^125I-hepcidin to I-HBD at 4° C. and ^125I-hepcidin bound to I-HBD at 37° C. was released when subsequently placed at 4° C. (data not shown).
HBD peptides were immobilized by covalently attaching them to agarose beads. […] The fluid was removed and the radioactivity bound to beads was determined by gamma counting (Perkin/Elmer).

In the next data set the target is T2, I-HBD (Homo sapiens, UniProt Q9NP59).
T2 construct: made in house; host or cells: chemical synthesis
As to the kind of experiment: Competition with 125I-labeled hepcidin on HBD-coated 96-well plate. It is filed as binding. The following applies: 96-well plate, 0, 50, 100, 500 ng hepcidin, room temperature, 4 hours. As to the method: In accordance with the invention, HBD can be used in an assay system to determine levels of hepcidin in a test sample. Accordingly, unlabeled HBD is immobilized on a solid substrate. HBD peptides were immobilized by covalently attaching them to a 96-well plate. Immobilization was performed using Reacti-Bind Amine-binding 96-well plates (Pierce), following the manufacturer's instructions. […] The plates were incubated at room temperature overnight. The peptide solution was then removed from the wells and a protein blocking buffer, such as dry milk in phosphate buffer saline, was added to each well and allowed to sit for two hours at 37° C. The plates were then washed with warm washing buffer to remove unbound material. HBD-coated plates were used in an assay to detect hepcidin as follows: […] The plate was incubated at room temperature for 4 hours. […] (FIG. 7)

For the next data set, the system named is E. coli. In words: Binding of hepcidin to E. coli. The conditions noted are these: low temperature hepcidin dimer; preliminary study. As to the method:
The five amino terminal amino acids of hepcidin were previously shown to be critical for binding of hepcidin to Fpn (7). […] Hepcidin is amphipathic and it is hypothesized that the hydrophobic surface of hepcidin monomers are interacting at 4° C. to form a dimer. Hepcidin, like other defensins, interacts through its hydrophobic surface with bacterial membranes (11).

RRFDCITTGYAYTQGLSGSILSRR [HBD wt]: the “solubility of the peptide” value in data set [1] is reported as “increased the solubility”.
Take `CC[C@H](C)[C@@H]1NC(=O)[C@@H](NC(=O)[C@@H](NC(=O)[C@@H]2CCCN2C(=O)[C@H](Cc2ccccc2)NC(=O)[C@H](Cc2c[nH]cn2)NC(=O)[C@@H](NC(=O)[C@@H](N)CC(=O)O)[C@@H](C)O)[C@@H](C)CC)CSSC[C@@H](C(=O)N[C@@H](CCCCN)C(=O)N[C@H](C(=O)O)[C@@H](C)O)NC(=O)[C@@H]2CSSC[C@@H]3NC(=O)[C@@H]4CSSC[C@H](NC(=O)[C@H](Cc5ccccc5)NC1=O)C(=O)N[C@@H](CSSC[C@H](NC(=O)[C@H](CCCCN)NC(=O)[C@H](CO)NC(=O)[C@H](CCCNC(=N)N)NC(=O)[C@H](Cc1c[nH]cn1)NC3=O)C(=O)NCC(=O)N[C@@H](CCSC)C(=O)N2)C(=O)NCC(=O)N4` [hepcidin]: the “binding to HBD / I-HBD” value in data set [2] is on record as “does bind”. Further, the “competition with 125I-labeled hepcidin for binding to I-HBD” value on I-HBD is listed as “able to compete for binding to I-HBD”. In addition, the “binding to E. coli” value with E. coli is “cannot bind to E. coli”.
